We go through nine compounds from patent US20260125375A1 (Pfizer Inc., priority 2022, published 2026).

One test has as its target T1, WT CBL-B (36-427) (Homo sapiens, UniProt Q13191).
T1 construct: N-terminal biotinylated WT CBL-B (36-427) and C-CBL (46-435) were captured on a streptavidin (SA) coated sensor chip
The test is described as follows: Surface Plasmon Resonance (SPR) assay, binding affinity and kinetics, CBL-B. To be noted: SPR at 10° C., biotinylated WT CBL-B (36-427) on streptavidin chip; geometric mean; read-out: CBL-B SPR Kd (nM) GMean. How it is done: (§1) Surface Plasmon Resonance (SPR) Assay
(§2) The purpose of the SPR assay is to evaluate the binding affinity and kinetics of the compound of disclosure binding to CBL-B and C-CBL.
(§3) The binding affinity and kinetics of compound binding to CBL-B and C-CBL were measured by Surface Plasmon Resonance (SPR) using either Biacore S200, 8K or 8K+ (Cytiva, Marlborough, MA) instruments. N-terminal biotinylated WT CBL-B (36-427) and C-CBL (46-435) were captured on a streptavidin (SA) coated sensor chip to achieve approximately 5000 to 6000 RUs of surface density. Un-functionalized SA surfaces with no immobilized protein served as reference for binding kinetic analysis. All the samples were prepared in buffer consisting of 10 mM HEPES, 150 mM NaCl, 0.05% Tween-20, 5% glycerol, […], 2% DMSO, pH 7.2. The same buffer was used as the running buffer during the experiments. Compound binding kinetics were measured in either multi-cycle or single-cycle kinetic format.
(§4) Multi-cycle kinetic analysis (MCK): A two-fold, 10-point serial dilution of test compounds was set-up in a 96-well microplate (Greiner; Cat #650101) with a top concentration of either 10 μM or 100 μM. Binding kinetics was measured at 10° C. by injecting serial dilution of compounds onto both reference and CBL immobilized channels at a flow rate of 100 μL/min and association time of 90 seconds. Compound dissociation was monitored for >400 seconds during each cycle. No additional regeneration was used. DMSO calibration curve was obtained before and after compound analysis by injecting 0-4% of DMSO in assay buffer. A suitable compound with known affinity and kinetics was tested once in every experiment as a positive control to assess activity of the captured proteins on the surface.
(§5) Single-cycle kinetic analysis (SCK): A 3-fold, 6-point serial dilution of compounds was set-up in a deep 96-well microplate (Greiner Bio; Cat #780201) with the highest concentration of 1 μM (concentration range: […]). Binding kinetics was measured at 10° C. by injecting serial dilutions of compounds in increasing order onto reference as well as CBL immobilized channels at a flow rate of 100 μL/min and association time of 120 seconds. Compound dissociation was monitored for >5400 seconds. Two buffer blanks were also run in a single-cycle kinetics format before the compound run for double referencing. No additional regeneration was used. DMSO calibration curve was obtained before and after compound analysis by injecting 0-4% of DMSO in the assay buffer. A suitable compound with known affinity and kinetics was tested once in every experiment as a positive control to assess activity of the captured proteins on the surface.

The target of the next test is T2, CBL-B (residues 36-427) (Homo sapiens, UniProt Q13191).
T2 construct: Purified CBL-B (residues 36-427) and C-CBL (residues 46-435) proteins from baculovirus-infected insect cells; made in house; host or cells: baculovirus-infected insect cells
Put plainly: Ligand Displacement Assay (LDA), HTRF competitive binding against BODIPY-labeled fluorescent tracer, CBL-B. To be noted: geometric mean of the number of tests, read-out: CBL-B Ki (nM) GMean. The text has this: (§6) Ligand Displacement Assay (LDA)
(§7) The purpose of the homogeneous time-resolved fluorescence energy transfer (HTRF) ligand displacement assay is to determine whether the compounds of the disclosure are competitive with a BODIPY-labeled compound; “fluorescent tracer” aka [6-cyclopropyl-5-(17-{5-[(3,5-dimethyl-2H-pyrrol-2-ylidene-KN)methyl]-1H-pyrrol-2-yl-κN}-15-oxo-5,8,11-trioxa-2,14-diazaheptadecan-1-yl)-N-(3-{3-[(4-methyl-4H-1,2,4-triazol-3-yl)methyl]oxetan-3-yl}phenyl)pyridine-2-carboxamidato](difluorido)boron and to assess CBL-B binding selectivity over C-CBL. The synthesis of this fluorescent tracer compound is described below.
(§8) Purified CBL-B (residues 36-427) and C-CBL (residues 46-435) proteins from baculovirus-infected insect cells were biotin labeled on their amino-terminal AviTag™ epitopes by the E. coli biotin ligase BirA to bind terbium-labeled streptavidin (SA-Tb). After optimizing the assays and determining KD values for the fluorescent tracer to CBL-B and C-CBL, compounds were tested using three-fold serial dilutions in duplicate from a top concentration of […] with a final DMSO concentration of 2%. […] The Ki (nM) values reported are the geometric means (GMean) of the number of tests conducted.
On the technique in general: TR-FRET usually uses a lanthanide donor and a delayed reading to cut background.

The target in a further test is T3, C-CBL (residues 46-435) (Homo sapiens, UniProt P22681).
T3 construct: Purified CBL-B (residues 36-427) and C-CBL (residues 46-435) proteins from baculovirus-infected insect cells; made in house; host or cells: baculovirus-infected insect cells
T3 sequence (P22681 46-435): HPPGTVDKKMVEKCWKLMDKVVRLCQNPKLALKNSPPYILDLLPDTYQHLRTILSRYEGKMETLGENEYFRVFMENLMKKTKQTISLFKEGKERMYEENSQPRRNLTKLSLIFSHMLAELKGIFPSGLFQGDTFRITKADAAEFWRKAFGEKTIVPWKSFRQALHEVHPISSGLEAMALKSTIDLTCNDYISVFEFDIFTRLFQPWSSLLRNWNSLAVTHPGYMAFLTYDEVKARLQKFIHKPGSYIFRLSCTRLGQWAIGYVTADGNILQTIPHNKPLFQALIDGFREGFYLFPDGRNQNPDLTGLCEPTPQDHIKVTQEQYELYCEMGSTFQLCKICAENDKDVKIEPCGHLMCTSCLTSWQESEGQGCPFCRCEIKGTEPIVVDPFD
Put plainly: Ligand Displacement Assay (LDA), HTRF competitive binding against BODIPY-labeled fluorescent tracer, C-CBL. To be noted: geometric mean of the number of tests, read-out: C-CBL Ki (nM) GMean.
Excerpt: as §6, §7, §8

For a further test, the target named is T4, C-CBL (46-435) (Homo sapiens, UniProt P22681).
T4 construct: N-terminal biotinylated WT CBL-B (36-427) and C-CBL (46-435) were captured on a streptavidin (SA) coated sensor chip
T4 sequence (P22681 46-435): T3 sequence (P22681 46-435)
The test is described as follows: Surface Plasmon Resonance (SPR) assay, binding affinity and kinetics, C-CBL. The following applies: SPR at 10° C., biotinylated C-CBL (46-435) on streptavidin chip; geometric mean; read-out: C-CBL SPR Kd (nM) GMean. How it is done: as §1, §2, §3, §4, §5

By Kd is commonly meant a measure of binding affinity in units of concentration. As a reminder, the Ki is a measure of affinity in units of concentration, obtained from inhibition or displacement.

`C[C@H](N[C@H]1C[C@H](O)C1)c1nc(C(F)(F)F)cc2c(-c3cccc([C@H](c4nncn4C)C4CCC4)c3)n[nH]c12` (single isomer, unassigned) [Example C91]: the Kd at WT CBL-B (36-427) is 5.1 nM; at C-CBL (46-435) it was 129 nM. In addition, the Ki is 12.7 nM at CBL-B (residues 36-427) and 105 nM on C-CBL (residues 46-435).

For `C[C@@H]1CCCN(Cc2nc(C(F)(F)F)cc3c(-c4cccc([C@H](c5nncn5C)C5CCC5)c4)n[nH]c23)C1` [Example C108, 3-{3-[(R)-cyclobutyl(4-methyl-4H-1,2,4-triazol-3-yl)methyl]phenyl}-7-{[(3R)-3-methylpiperidin-1-yl]methyl}-5-(trifluoromethyl)-1H-pyrazolo[3,4-c]pyridine], the results for the Kd at WT CBL-B (36-427) and at C-CBL (46-435) were 5.5 nM and 148 nM, respectively. For the same compound, the Ki on CBL-B (residues 36-427) was 79.4 nM; at C-CBL (residues 46-435) it was 630 nM.

As to `Cn1cnnc1CC1(c2cccc(-c3n[nH]c4c(CN[C@@H]5CCOC5)nc(C(F)(F)F)cc34)c2)COC1` [Example C59], the results for the Kd at WT CBL-B (36-427) and on C-CBL (46-435) were 16.8 nM and 230 nM, respectively. Moreover, the Ki at CBL-B (residues 36-427) turned out to be 45.2 nM; on C-CBL (residues 46-435), 171 nM.

With `CN1CC[C@H](Oc2nc(C(F)(F)F)cc3c(-c4cccc([C@H](c5nncn5C)C5CCC5)c4)n[nH]c23)C1` [Example J5, 3-{3-[(R)-cyclobutyl(4-methyl-4H-1,2,4-triazol-3-yl)methyl]phenyl}-7-{[(3S)-1-methylpyrrolidin-3-yl]oxy}-5-(trifluoromethyl)-1H-pyrazolo[3,4-c]pyridine], the Kd on WT CBL-B (36-427) stood at 3.3 nM; on C-CBL (46-435) it was 137 nM. In addition, the Ki at CBL-B (residues 36-427) was 10 nM; on C-CBL (residues 46-435) it was 87.1 nM.

For the compound `Cn1cnnc1[C@@H](c1cccc(-c2n[nH]c3c(CN4CC(F)C4)nc(C(F)(F)F)cc23)c1)C1CCC1` [Example C106, 3-{3-[(R)-cyclobutyl(4-methyl-4H-1,2,4-triazol-3-yl)methyl]phenyl}-7-[(3-fluoroazetidin-1-yl)methyl]-5-(trifluoromethyl)-1H-pyrazolo[3,4-c]pyridine], the Kd at WT CBL-B (36-427) was 5.9 nM; at C-CBL (46-435), 265 nM. Also, the Ki on CBL-B (residues 36-427) stood at 41.6 nM; at C-CBL (residues 46-435), 475 nM.

For `C[C@@H](CO)c1nc(C(F)(F)F)cc2c(-c3cccc([C@H](c4nncn4C)C4CCC4)c3)n[nH]c12` (single isomer, unassigned) [Example K4, (2ξ)-2-[3-{3-[(ξ)-cyclobutyl(4-methyl-4H-1,2,4-triazol-3-yl)methyl]phenyl}-5-(trifluoromethyl)-1H-pyrazolo[3,4-c]pyridin-7-yl]propan-1-ol], the Kd on WT CBL-B (36-427) was 8.3 nM; on C-CBL (46-435), 207 nM. Moreover, the inhibition constant (Ki) on CBL-B (residues 36-427) turned out to be 17.6 nM; at C-CBL (residues 46-435), 156 nM.

As for `C[C@H]1CN(Cc2nc(C(F)(F)F)cc3c(-c4cccc(C5(Cc6nncn6C)COC5)c4)n[nH]c23)CCO1` [Example C58, 7-{[(2S)-2-methylmorpholin-4-yl]methyl}-3-(3-{3-[(4-methyl-4H-1,2,4-triazol-3-yl)methyl]oxetan-3-yl}phenyl)-5-(trifluoromethyl)-1H-pyrazolo[3,4-c]pyridine], the Kd at WT CBL-B (36-427) was found to be 5.8 nM; on C-CBL (46-435), 54.1 nM. In addition, the Ki stood at 14.8 nM at CBL-B (residues 36-427) and 82.4 nM on C-CBL (residues 46-435).

For `Cn1cnnc1CC1(c2cccc(-c3n[nH]c4ccc(Cl)cc34)c2)COC1` [Example B7, 5-chloro-3-(3-{3-[(4-methyl-4H-1,2,4-triazol-3-yl)methyl]oxetan-3-yl}phenyl)-1H-indazole], the Kd at WT CBL-B (36-427) turned out to be 7.2 nM; at C-CBL (46-435), 108 nM. Moreover, the Ki on CBL-B (residues 36-427) stood at 25.1 nM; on C-CBL (residues 46-435) it was 150 nM.

On to `CC(CN)c1nc(C(F)(F)F)cc2c(-c3cccc([C@H](c4nncn4C)C4CCC4)c3)n[nH]c12` (single isomer, unassigned) [Example K14], for which the Kd on WT CBL-B (36-427) was determined as 20.6 nM; on C-CBL (46-435), 244 nM. In addition, the Ki was determined as 24.8 nM on CBL-B (residues 36-427) and 195 nM at C-CBL (residues 46-435).
